Laboratory results from article doi:10.1101/2025.01.02.631061v1 (biorxiv, 2025).
Like-named read-outs stand apart in the source and are kept apart here.

Assays:
UnBGl1 [1] = test: pNP release, absorbance […] nm, Michaelis-Menten; type: biochemical, soil metagenome; settings: pH 6.0, 55 °C, 10 min
UnBGl1 [2] = settings: optimum pH 6.5, 55 °C, 10 min
UnBGl1 [3] = settings: pH 6.0, 55 °C, 10 min
UnBGl1 [4] = settings: optimum pH 5.5, 50 °C, 30 min
UnBGl1 [5] = settings: pH 6.0, 50 °C, 30 min

SMILES: O=[N+]([O-])c1ccc(O[C@@H]2O[C@H](CO)[C@@H](O)[C@H](O)[C@H]2O)cc1 [4-nitrophenyl β-D-glucopyranoside]
- Km (UnBGl1 [1]): 0.92 ± 0.05 mM
- Km (UnBGl1 [2]): 0.65 ± 0.04 mM
- Km (UnBGl1 [3]): 7.35 ± 3 mM

SMILES: OC[C@H]1O[C@@H](O[C@H]2[C@H](O)[C@@H](O)C(O)O[C@@H]2CO)[C@H](O)[C@@H](O)[C@@H]1O (some centres unmarked) [cellobiose]
- Km (UnBGl1 [4]): 22.9 ± 1.1 mM
- Km (UnBGl1 [5]): 34.6 ± 2.4 mM
